The values that follow come from patent US20100190817A1, “LARGE SUBSTITUENT, NON-PHENOLIC AMINE OPIOIDS” (RENSSELAER POLYTECHNIC INSTITUTE, priority 2008, published 2010).

Test [1] has as its target human μ opioid receptor (Homo sapiens, UniProt P35372). The test can be described thus: Opioid receptor binding assay, [3H]DAMGO (μ).
In test [2] the target is human δ opioid receptor (Homo sapiens, UniProt P41143). The test can be described thus: Opioid receptor binding assay, [3H]naltrindole (δ).
Test [3] addresses human κ opioid receptor (Homo sapiens, UniProt P41145). The test can be described thus: Opioid receptor binding assay, [3H]U69,593 (κ).
Test [4] concerns guinea pig μ receptors. Particulars: cited from earlier work.
In test [5] the test system is mice. Particulars: cited from earlier work; for duration of action (antinociception): 1 mg/kg ip in mice.
Test [6] has as its system κ opioid receptors. Particulars: cited from earlier work.

human μ opioid receptor, sequence (P35372 whole entry): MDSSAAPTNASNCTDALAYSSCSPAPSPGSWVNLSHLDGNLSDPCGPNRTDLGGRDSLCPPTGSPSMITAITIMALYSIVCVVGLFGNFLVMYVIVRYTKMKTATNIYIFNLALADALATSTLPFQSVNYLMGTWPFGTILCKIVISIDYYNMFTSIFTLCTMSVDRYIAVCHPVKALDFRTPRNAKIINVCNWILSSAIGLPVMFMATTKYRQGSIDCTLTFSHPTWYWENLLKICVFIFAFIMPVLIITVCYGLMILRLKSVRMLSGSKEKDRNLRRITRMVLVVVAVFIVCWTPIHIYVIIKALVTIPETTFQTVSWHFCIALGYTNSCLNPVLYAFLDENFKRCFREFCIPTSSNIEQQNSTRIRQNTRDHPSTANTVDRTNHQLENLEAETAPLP
human κ opioid receptor, sequence (P41145 whole entry): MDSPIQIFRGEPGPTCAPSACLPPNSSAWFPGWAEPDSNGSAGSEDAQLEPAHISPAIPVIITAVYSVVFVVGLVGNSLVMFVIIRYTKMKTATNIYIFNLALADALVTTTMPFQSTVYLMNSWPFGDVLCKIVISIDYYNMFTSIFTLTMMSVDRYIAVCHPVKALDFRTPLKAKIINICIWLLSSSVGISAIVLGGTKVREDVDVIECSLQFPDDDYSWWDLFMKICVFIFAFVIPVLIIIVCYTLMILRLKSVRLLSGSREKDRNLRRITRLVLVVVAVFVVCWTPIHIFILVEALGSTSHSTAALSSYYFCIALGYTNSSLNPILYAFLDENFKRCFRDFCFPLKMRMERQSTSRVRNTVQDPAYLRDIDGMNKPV
human δ opioid receptor, sequence (P41143 whole entry): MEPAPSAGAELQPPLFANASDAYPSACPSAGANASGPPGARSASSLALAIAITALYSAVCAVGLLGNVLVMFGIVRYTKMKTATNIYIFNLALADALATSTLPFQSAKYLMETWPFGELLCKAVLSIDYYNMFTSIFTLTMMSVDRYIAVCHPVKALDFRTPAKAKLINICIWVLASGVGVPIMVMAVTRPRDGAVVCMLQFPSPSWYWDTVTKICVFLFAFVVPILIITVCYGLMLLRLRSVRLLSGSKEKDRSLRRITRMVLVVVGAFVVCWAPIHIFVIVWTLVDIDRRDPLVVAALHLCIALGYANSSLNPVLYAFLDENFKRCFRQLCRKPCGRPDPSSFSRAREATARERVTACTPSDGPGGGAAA

Consider `CC1C2Cc3ccc(C(=O)NCCc4ccc(-c5cccc(N(C)C)c5)cc4)cc3C1(C)CCN2CC1CC1` (centres unmarked) [SJJ-B-074c], for which the Ki (commonly the dissociation constant of the complex between target and ligand, obtained from inhibition or displacement) was determined as 180 ± 55 pM in test [1], 2500 ± 170 pM in test [2] and 260 ± 22 pM in test [3].
Take `C[C@H]1C2Cc3ccc(C(N)=O)cc3[C@@]1(C)CCN2CC1CC1` [Example 8-CAC, 8-carboxamidocyclazocine]: the “affinity for μ opioid receptors” value in test [4] is on record as “high affinity”. Further, the “duration of action (antinociception)” value in test [5] is listed as 15 h. Besides, the antinociception activity entry in test [5] (studies in vivo) was “high antinociception activity”. The “affinity for κ opioid receptors” value in test [6] is reported as “high affinity”.
For the compound `CC1C2Cc3ccc(C(=O)NCCc4ccc(-c5ccc(NC(=O)OC(C)(C)C)cc5)cc4)cc3C1(C)CCN2CC1CC1` (centres unmarked) [SJJ-C-027b], the Ki in test [1] was 320 ± 15 pM; in test [2], 3100 ± 340 pM; in test [3] it was 3400 ± 320 pM.
Turning to `C[C@H]1[C@H]2Cc3ccc(O)cc3[C@]1(C)CCN2CC1CC1` [cyclazocine], in test [5], the “duration of action (antinociception)” value is listed as 2 h.
On to `CC1C2Cc3ccc(C(=O)NCCc4ccc(-c5ccc(N)cc5)cc4)cc3C1(C)CCN2CC1CC1` (centres unmarked) [SJJ-B-112g], for which the inhibitory constant (Ki) was determined as 1.4 ± 0.1 pM in test [1], 1500 ± 78 pM in test [2] and 390 ± 8.5 pM in test [3].
In the same order, the values of `CC1C2Cc3ccc(C(=O)NCCc4ccc(-c5ccc(CN(C)C)cc5)cc4)cc3C1(C)CCN2CC1CC1` (centres unmarked) [SJJ-C-013b] are 94 ± 5.4 pM, 3700 ± 150 pM and 1900 ± 14 pM.
